Laboratory results as given in patent publication US20210292333A1, “CONDENSED AZAHETEROARYL COMPOUNDS HAVING ANTIBACTERIAL ACTIVITY AGAINST TU[…]” (CADILA HEALTHCARE LIMITED, priority 2018, published 2021).
Converted amounts (≈) assume the structure as drawn.

Columns and labels:
[1] = system: Mycobacterium tuberculosis H37Rv; assay: Minimum Inhibitory Concentration (MIC) determination, MABA assay; format: cell-based; conditions: 168 h, 7H9 medium, 7 days at 37° C., alamar blue, read-out: Mtb MIC
Procedure: To assess the bacterial growth inhibitory effect of the compounds of the invention, MABA assay was performed with log phase culture of Mycobacterium tuberculosis H37Rv. Bacterial culture of optical density 0.6-0.8 was diluted to final density of 0.02 in 7H9 medium. 100 μl of diluted Mycobacterium tuberculosis H37Rv was incubated with the test compounds in microtiter plate. A drug free control containing DMSO also was also prepared. Following incubation of the compound with culture for 7 days at 37° C., 20 μl of 0.02% alamar blue (freshly prepared) was added in each well. The color was allowed to develop for 16 h at 37° C. Blue color in the well indicated no growth whereas pink color signifies growth in the well. MIC value is defined as the lowest concentration that prevents the color change from blue to pink. Fluorescence was measured at excitation at 530 nm and emission at 590 nm.

[2] = Pharmacokinetics of the compounds in mice (IV and oral single dose); format: in vivo; conditions: mouse, plasma, Balb/c mice; for bioavailability: PO 3 mg/kg vs IV 1 mg/kg, read-out: F(%) absolute oral bioavailability; for AUC(0-t) / Cmax: single dose, Oral (PO) 3 mg/kg suspension, IV 1 mg/kg, route not given
Procedure: Balb/c mice were obtained from Zydus Research Centre, Ahmedabad India, AAALAC Accreditation. All animals were housed in temperature-control rooms with appropriate light/dark cycles. The animals were overnight fasted before oral gavage dosing but were given access to water ad libitum. Food was provided 4 h after dosing. All animal studies were conducted according to protocols reviewed and approved by the Institutional Animal Care and Ethics Committee at the Zydus Research Centre. Compounds were dosed as a solution in 10% NMP and 10% solutol in Normal Saline (Intravenous (IV), 1 mg/kg) and homogenous suspension (Oral (PO), 3 mg/kg) in 0.5% Tween 80 in 0.5% methyl cellulose as a single dose in mice. For mouse composite PK profile was generated. Blood samples were collected at 0.08 (IV only), 0.25, 0.5, 1, 2, 4, 6, 7.5, and 24 h post-dose in Na-heparin coated micro centrifuge tubes. Blood samples were centrifuged to separate plasma which were then stored at −70° C. until analysis. PK parameters were calculated by non-compartmental analysis using Phoenix (Pharsight Corp., Mountain View, Calif.). A model was selected based on the vascular (IV bolus) or extravascular (PO) routes of administration. For the PO route, concentration at time zero was assumed to be zero. Plasma concentrations below the limit of quantitation were treated as zero concentration for the purpose of calculating the mean plasma concentration values. Pharmacokinetic parameters such as maximum plasma concentration (Cmax), area under the curve of concentration over the time (AUC (0-t)) and absolute oral bioavailability (F (%)) of the selected compounds are shown in Table 3.

| Structure (SMILES) | MIC [1] | bioavailability [2] | AUC(0-t) [2] | Cmax [2] |
| --- | --- | --- | --- | --- |
| CCOc1ncnc(Cn2cc(C(=O)NCC3(O)CC3)c3ncc(C)nc32)c1C [Example 13, 5-((6-ethoxy-5-methylpyrimidin-4-yl)methyl)-N-((1-hydroxycyclopropyl)methyl)-3-methyl-5H-pyrrolo[2,3-b]pyrazine-7-carboxamide] | 0.25 µM (≈ 0.0991 µg/mL) | 100% | 2150 ng·h/mL | 1320 ng/mL |
| COCCNC(=O)c1nn(Cc2ncnc(OC)c2C)c2cc(C)cnc12 [Example 10, 1-((6-methoxy-5-methylpyrimidin-4-yl)methyl)-N-(2-methoxyethyl)-6-methyl-1H-pyrazolo[4,3-b]pyridine-3-carboxamide] | 5 µM (≈ 1.85 µg/mL) | 100% | 5130 ng·h/mL | 4000 ng/mL |
| COc1ncnc(Cn2nc(C(=O)NCC3(O)CC3)c3ncc(C)cc32)c1C [Example 1, N-((1-hydroxycyclopropyl)methyl)-1-((6-methoxy-5-methylpyrimidin-4-yl)methyl)-6-methyl-1H-pyrazolo[4,3-b]pyridine-3-carboxamide] | 1.25 µM (≈ 0.478 µg/mL) | 100% | 2850 ng·h/mL | 1730 ng/mL |
| CCOc1ncnc(Cn2nc(C(=O)NCC3(O)CC3)c3ncc(C)cc32)c1C [Example 3, 1-((6-ethoxy-5-methylpyrimidin-4-yl)methyl)-N-((1-hydroxycyclopropyl)methyl)-6-methyl-1H-pyrazolo[4,3-b]pyridine-3-carboxamide] | ≤ 0.625 µM | 100% | 2810 ng·h/mL | 2720 ng/mL |
| COc1ncnc(Cn2cc(C(=O)NCC3(O)CC3)c3ncc(C)nc32)c1C [Example 11, N-((1-hydroxycyclopropyl)methyl)-5-((6-methoxy-5-methylpyrimidin-4-yl)methyl)-3-methyl-5H-pyrrolo[2,3-b]pyrazine-7-carboxamide] | 0.5 µM (≈ 0.191 µg/mL) | 100% | 2570 ng·h/mL | 1660 ng/mL |
| COc1ncnc(Cn2nc(C(=O)NCC3(O)CC3)c3ncc(C)nc32)c1C [Example 14, N-((1-hydroxycyclopropyl)methyl)-1-((6-methoxy-5-methylpyrimidin-4-yl)methyl)-6-methyl-1H-pyrazolo[3,4-b]pyrazine-3-carboxamide] | – | 90% | 1680 ng·h/mL | 1600 ng/mL |
| COc1cnc2c(C(=O)NCC3(O)CC3)cn(Cc3ncnc(OC)c3C)c2n1 [Example 12, N-((1-hydroxycyclopropyl)methyl)-3-methoxy-5-((6-methoxy-5-methylpyrimidin-4-yl)methyl)-5H-pyrrolo[2,3-b]pyrazine-7-carboxamide] | 0.25 µM (≈ 0.0996 µg/mL) | 100% | 2920 ng·h/mL | 1720 ng/mL |
| COc1ncnc(Cn2cc(C(=O)NCC3(O)CC3)c3ncc(C)cc32)c1C [Example 85, N-((1-hydroxycyclopropyl)methyl)-1-((6-methoxy-5-methylpyrimidin-4-yl)methyl)-6-methyl-1H-pyrrolo[3,2-b]pyridine-3-carboxamide] | ≤ 0.0625 µM | 94% | 2180 ng·h/mL | 1470 ng/mL |
| COc1nc(C)ccc1Cn1nc(C(=O)NCC2(O)CC2)c2ncc(C)cc21 [Example 9, N-((1-hydroxycyclopropyl)methyl)-1-((2-methoxy-6-methylpyridin-3-yl)methyl)-6-methyl-1H-pyrazolo[4,3-b]pyridine-3-carboxamide] | – | 78% | 2160 ng·h/mL | 1570 ng/mL |
